Test results as given in US20080206819A1, “Intensified Perfusion Production Method” (priority 2006, published 2008).

Columns and labels:
[1] = test system: recombinant CHO cells; settings: sodium butyrate added in fluidized bed bioreactor; cited from earlier work
[2] = test system: CHO (Chinese Hamster Ovary) cell-derived cell line; assay: Average daily specific productivity: perfusion, fed-batch and RaMP; format: cell-based; settings: for Average Daily Specific Productivity: 10 day production run
Excerpt: Average daily specific productivity was compared using traditional perfusion, fed-batch with sodium butyrate induction and RaMP processes. The same production cell line was used for all three methods. Culture conditions for all three methods were similar to those described in Example 1 above. Cells were inoculated at 5×10^5 cells/ml and were allowed to grow to the desired concentration before induction with sodium butyrate. Fed-batch culture was induced with sodium butyrate as a bolus addition. Fed-batch specific productivity calculations were normalized and averaged for new protein production per day. Average daily specific productivity was calculated using production yields from a 10 day production run. Maximal sodium butyrate concentration was 2 mM for both fed-batch and RaMP processes. Average daily yields using the RaMP method was approximately 6 times more than fed-batch or traditional perfusion methods.

[3] = test system: recombinant CHO cells; settings: perfusion culture; end of the production run, in most cases; cited from earlier work
[4] = test system: CHO (Chinese Hamster Ovary) cell-derived cell line; assay: Cell viability with gradual NaB ramping in perfusion culture (summary experiment); format: cell-based
Method: In one experiment, 0.5 mM NaB (final concentration) was introduced into the bioreactor by perfusing RBM12.1 medium with 0.5 mM NaB into the bioreactor on day 7 of the production run. On day 10, the bioreactor was perfused with RBM 12.1 medium with 1.0 mM NaB. On day 13, the bioreactor was perfused with RBM12.1 medium with 1.5 mM NaB.

[5] = test system: Chinese hamster ovary (CHO) cell line; assay: Cell viability, traditional perfusion vs. RaMP (trypan blue staining); format: cell-based
Method: The production cell line used for all experiments is a CHO (Chinese Hamster Ovary) cell-derived cell line transfected with the desired construct to produce a recombinant IgG1 protein. For all of the experiments, the cell line was grown in the RBM12.1 media under selective pressure (100 μg/ml Hygromycin B and 500 nM methotrexate). The cells were seeded in at a density of 4×10^5 to 1×10^6 cells per milliliter, depending on bioreactor size. pH was kept at 7.1±0.05 and temperature was kept at 37° C.±0.5. The perfusion rate for both traditional perfusion and the methods of the invention (RaMP) was 1.0 to 2.0 volumes/day. The cell retention devices used were the hollow fiber system and/or the cell settler system. […] The cell settler system (retention by gravity) seem to overcome this problem. Sodium butyrate was introduced into the bioreactor after the cells reached the desired cell density (around 20 million cells/ml). Once sodium butyrate was introduced into the perfusion system, the cells were kept at that sodium butyrate condition until the next higher dose. This gradual ramping of sodium butyrate concentration was continued until the desired final concentration of sodium butyrate was reached. Once the desired sodium butyrate concentration is reached, the cells are grown in media in media containing the desired sodium butyrate concentration for the rest of the production run.
The mammalian host cell line used is a Chinese hamster ovary (CHO) cell line. This cell line has been transfected with the light and heavy chains of a chimeric IgG1 monoclonal antibody. The cells were grown in RBM12.1 medium under selective pressure (100 μg/ml Hygromycin B and 500 nM methotrexate (MTX). The medium used for this example contained the components in Table 1. Additional factors such as 10 μg/ml recombinant human insulin and 0.1% F68 are also added to the medium.
During the growth period, the cultures were controlled at pH 7.1±0.05 by the use of CO2 gas (acid) and/or Na2CO3 (base). Temperature was controlled at 37°±0.5 Celsius. Oxygen level was maintained at about 100% air saturation. For the initial growth period, CO2 level was maintained at 5%. When the cell density reached […] cells/ml, CO2 gas to the culture was turned off. The osmolality of the culture was maintained between 325 to 400 mOsm with minimal osmolality drift.
In a typical production schedule, 5×10^5 to 1×10^6 cells were inoculated into the cell culture bioreactor. 1 to 1.5 volumes of media was perfused daily. Cell density and viability was monitored by pulling a sample from the bioreactor and counted using trypan blue staining for live/dead cells.
Ten days after inoculation, the production period was started with the gradual addition of sodium butyrate (Na butyrate) into the RaMP cultures. 1.5 volume of RBM12.1 medium with 1 mM Na butyrate was perfused into the biorector on day 1 of the production period. This concentration of Na butyrate was kept in the bioreactor using the RaMP method for the duration of the production period. For cells in the traditional perfusion method, RBM12.1 media without Na butyrate was perfused into the bioreactor at the same perfusion rate as used in the RaMP method. Cell viability was monitored daily.

[6] = test system: Chinese hamster ovary (CHO) cell line; assay: Effect of increasing sodium butyrate concentrations on cell viability in perfusion culture; format: cell-based
Method: Additional experiments using higher concentrations of sodium butyrate induction were also performed. The cells were seeded and grown similar to the conditions described above. On day 7, […] sodium butyrate was introduced into the perfusion medium. On day 10, the sodium butyrate concentration was increased to 1.0 mM. On day 12, the sodium butyrate concentration was increased to 2.0 mM. On day 14, the sodium butyrate concentration was increased to 4.0 mM and on day 17, the sodium butyrate concentration was increased to 8.0 mM. Throughout the experiment, cell viability was over 85% and the viable cell concentration reached over 4.8×10^7 cells/ml.

## CCCC(=O)[O-].[Na+] [sodium butyrate]
[1]
  cell growth and cell concentration: the cells stopped growing and cell concentration declined
[2]; Fed-batch, sodium butyrate bolus addition, maximal 2 mM
  Average Daily Specific Productivity: 0.10 g/L/day ± 0.03
[2]; RaMP, maximal sodium butyrate 2 mM
  Average Daily Specific Productivity: 0.64 g/L/day ± 0.07
[2]; maximal sodium butyrate 2 mM
  Average daily yields using RaMP relative to fed-batch or traditional perfusion methods: approximately 6 times
[3]
  cell viability: less than 45%
[4]; 0.5 mM NaB day 7, 1.0 mM day 10, 1.5 mM day 13
  cell viability: did not decrease
[4]; gradual ramping of sodium butyrate to desired maximal concentration, compared to bolus addition
  cell viability: over 85%
[5]; 1 mM Na butyrate perfused from start of production period, day 10
  % viable cells (RaMP): 97%
[5]; 1 mM Na butyrate, day 11
  % viable cells (RaMP): 97.6%
[5]; 1 mM Na butyrate, day 12
  % viable cells (RaMP): 96.4%
[5]; 1 mM Na butyrate, day 13
  % viable cells (RaMP): 97.1%
[5]; 1 mM Na butyrate, day 14
  % viable cells (RaMP): 95.7%
[5]; 1 mM Na butyrate, day 15
  % viable cells (RaMP): 96.1%
[5]; 1 mM Na butyrate, day 16
  % viable cells (RaMP): 97.2%
[5]; 1 mM Na butyrate, day 17
  % viable cells (RaMP): 96.4%
[5]; 1 mM Na butyrate, day 18
  % viable cells (RaMP): 97%
[5]; 1 mM Na butyrate, day 19
  % viable cells (RaMP): 96.9%
[5]; 1 mM Na butyrate, day 20
  % viable cells (RaMP): 95.8%
[5]; RaMP method, 1 mM Na butyrate, production period
  cell viability: sustained high cell viability
[6]; Na butyrate 0.5 mM, day 7
  % viable cells: 97.3%
[6]; Na butyrate 0.5 mM, day 8
  % viable cells: 97.8%
[6]; Na butyrate 0.5 mM, day 9
  % viable cells: 97.8%
[6]; Na butyrate 1.0 mM, day 10
  % viable cells: 97.8%
[6]; Na butyrate 1.0 mM, day 11
  % viable cells: 96.6%
[6]; Na butyrate 2.0 mM, day 12
  % viable cells: 97.2%
[6]; Na butyrate 2.0 mM, day 13
  % viable cells: 95.9%
[6]; Na butyrate 4.0 mM, day 14
  % viable cells: 97%
[6]; Na butyrate 4.0 mM, day 15
  % viable cells: 96.7%
[6]; Na butyrate 4.0 mM, day 16
  % viable cells: 94.2%
[6]; Na butyrate 8.0 mM, day 17
  % viable cells: 94.7%
[6]; Na butyrate 8.0 mM, day 18
  % viable cells: 93.3%
[6]; Na butyrate 8.0 mM, day 19
  % viable cells: 91.5%
[6]; Na butyrate 8.0 mM, day 20
  % viable cells: 88.1%
[6]; sodium butyrate stepped 0.5 to 8.0 mM, day 7 to day 17, throughout the experiment
  cell viability: over 85%
[6]; sodium butyrate stepped 0.5 to 8.0 mM, reached
  viable cell concentration: over 4.8×10^7 cells/ml
